We go through twelve molecules from PubChem BioAssay (NCI).

One may read the GI50 as the concentration giving 50% growth inhibition. In general, TGI refers to the concentration at which net growth stops. Low values mean greater sensitivity of the cells, high ones lower sensitivity of the cells.

Test systems include MALME-3M melanoma; EKVX NSCLC; RPMI-8226 leukemia; MDA-MB-231 breast; CAKI-1 renal; SF-295 CNS; NCI-H23 lung; PC-3 prostate; MCF7 breast; SK-OV-3 ovarian.
Common to all, as to assay: DTP human tumour cell line panel, 48 h

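Step 1: Grow cells in 96-well plates. Step 2: Expose to compound for 48 hours at 5 concentrations. Step 3: Interpolate endpoints linearly; if unreached, use highest concentration. The concentration for 50% growth inhibition is given as GI50. TGI is the concentration that stops growth completely.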

For `Fc1ccc(-c2nn3c(-c4ccc(F)c(Cl)c4)nnc3s2)cc1`, the GI50 with MALME-3M melanoma was more than 50 µM; in the experiment on EKVX NSCLC, more than 50 µM; in the experiment on RPMI-8226 leukemia, 22.8 µM; in the experiment with MDA-MB-231 breast, 30.5 µM; in the experiment on CAKI-1 renal it was 26 µM; with SF-295 CNS, 18.2 µM. For the same molecule, the GI50 was more than 50 µM in the experiment on NCI-H23 lung, 29.1 µM in the experiment on PC-3 prostate, 30.3 µM in the experiment with MCF7 breast and 19.4 µM in the experiment on SK-OV-3 ovarian. In addition, the TGI in the experiment on MALME-3M melanoma, with EKVX NSCLC, in the experiment on RPMI-8226 leukemia, in the experiment on MDA-MB-231 breast, in the experiment on CAKI-1 renal and in the experiment with SF-295 CNS was more than 50 µM in each case. For the same molecule, the TGI in the experiment on NCI-H23 lung, with PC-3 prostate, with MCF7 breast and in the experiment on SK-OV-3 ovarian was more than 50 µM each time.

For the molecule `CC1=C(/C=C/C(=O)O)C(C)(C)CCC1`, the concentration for total growth inhibition (TGI) with MALME-3M melanoma, in the experiment on EKVX NSCLC, in the experiment with RPMI-8226 leukemia, in the experiment with MDA-MB-231 breast, with CAKI-1 renal and in the experiment with SF-295 CNS was more than 100 µM in each case. The total growth inhibition concentration (TGI) in the experiment with NCI-H23 lung, with PC-3 prostate, in the experiment with MCF7 breast and with SK-OV-3 ovarian was more than 100 µM each time.

Regarding `O=C(Nc1ccccc1)c1nn(-c2cc(S(=O)(=O)O)c([N+](=O)[O-])cc2Cl)[n+](-c2cc(S(=O)(=O)[O-])c([N+](=O)[O-])cc2Cl)n1`, the TGI is more than 100 µM in the experiment on MALME-3M melanoma; more than 100 µM in the experiment with EKVX NSCLC; more than 100 µM in the experiment with RPMI-8226 leukemia; 94 µM with MDA-MB-231 breast; more than 100 µM in the experiment with CAKI-1 renal; more than 100 µM with SF-295 CNS. In addition, the TGI in the experiment with NCI-H23 lung, in the experiment with PC-3 prostate, with MCF7 breast and in the experiment with SK-OV-3 ovarian was more than 100 µM in each case.

For the molecule `CC(=O)Nc1ccc(/C=C/C(=O)c2ccccc2)cc1`, the GI50 in the experiment with MALME-3M melanoma is 16.7 µM; in the experiment on EKVX NSCLC, 16.6 µM; in the experiment on RPMI-8226 leukemia, 3.69 µM; in the experiment with MDA-MB-231 breast, 17.7 µM; with CAKI-1 renal, 3.77 µM; with SF-295 CNS it was 14.4 µM. The GI50 with NCI-H23 lung was 17.5 µM; with PC-3 prostate, 23.2 µM; in the experiment with MCF7 breast, 3.5 µM; in the experiment with SK-OV-3 ovarian, 27.1 µM. Moreover, the TGI in the experiment with MALME-3M melanoma turned out to be 36.9 µM; in the experiment on EKVX NSCLC, 33.6 µM; with RPMI-8226 leukemia, 17.8 µM; in the experiment on MDA-MB-231 breast, 44.6 µM; in the experiment with CAKI-1 renal it was 16.2 µM; in the experiment on SF-295 CNS it was 31.7 µM. Besides, the TGI with NCI-H23 lung is 43.2 µM; with PC-3 prostate, 66.2 µM; in the experiment with MCF7 breast it was 13.9 µM; in the experiment on SK-OV-3 ovarian, 96 µM.

For the molecule `C/C=C/C/C=C/CCC(=O)[C@H]1O[C@H]1C(N)=O`, the GI50 in the experiment with MALME-3M melanoma is 13.7 µM; in the experiment on EKVX NSCLC, 14.1 µM; in the experiment on RPMI-8226 leukemia it was 6.58 µM; in the experiment with MDA-MB-231 breast, 13.1 µM; with CAKI-1 renal, 13.4 µM; in the experiment with MCF7 breast, 12.6 µM. For the same molecule, in the experiment with SK-OV-3 ovarian, the GI50 is 27 µM. Further, the TGI turned out to be 32.9 µM in the experiment on MALME-3M melanoma; 28.9 µM in the experiment on EKVX NSCLC; 54.2 µM with RPMI-8226 leukemia; 26.8 µM in the experiment on MDA-MB-231 breast; 36.5 µM in the experiment on CAKI-1 renal; 34.8 µM in the experiment on SF-295 CNS. The TGI in the experiment on NCI-H23 lung is 29.9 µM; in the experiment with PC-3 prostate it was 40.7 µM; in the experiment on MCF7 breast, 26.1 µM; in the experiment on SK-OV-3 ovarian, more than 72.7 µM.

For the molecule `Nc1ccccc1-c1ccc([N+](=O)[O-])cc1`, the GI50 in the experiment on MALME-3M melanoma was 16.5 µM; with EKVX NSCLC it was 8.58 µM; in the experiment on RPMI-8226 leukemia it was 4.95 µM; with MDA-MB-231 breast it was 36.3 µM; in the experiment on CAKI-1 renal, 1.71 µM; in the experiment on SF-295 CNS, 2.18 µM. Also, the GI50 with NCI-H23 lung is 26.6 µM; in the experiment with PC-3 prostate it was 15 µM; with MCF7 breast, 35 µM; with SK-OV-3 ovarian, 68.3 µM. In addition, the TGI in the experiment on MALME-3M melanoma is more than 100 µM; with EKVX NSCLC it was more than 100 µM; with RPMI-8226 leukemia it was more than 100 µM; with MDA-MB-231 breast it was more than 100 µM; with CAKI-1 renal it was more than 100 µM; in the experiment on SF-295 CNS it was 64.8 µM. The TGI in the experiment on NCI-H23 lung, in the experiment with PC-3 prostate, with MCF7 breast and in the experiment with SK-OV-3 ovarian was more than 100 µM in each case.

With `Cc1ccc(NC(=O)Cc2ccc(/C=C/C(=O)c3ncc[nH]3)cc2)cc1`, the GI50 is more than 25 µM with MALME-3M melanoma; 13.5 µM in the experiment with EKVX NSCLC; 1.79 µM in the experiment on RPMI-8226 leukemia; 9.46 µM with MDA-MB-231 breast; 9.62 µM with CAKI-1 renal; 7.9 µM in the experiment on SF-295 CNS. Further, the GI50 with NCI-H23 lung is 5.85 µM; in the experiment on PC-3 prostate, 7.1 µM; in the experiment on MCF7 breast, 1.15 µM; with SK-OV-3 ovarian, 12.8 µM. In addition, the TGI with MALME-3M melanoma is more than 25 µM; with EKVX NSCLC, more than 25 µM; in the experiment with RPMI-8226 leukemia, 11.8 µM; in the experiment with MDA-MB-231 breast it was more than 25 µM; in the experiment on CAKI-1 renal it was more than 25 µM; in the experiment with SF-295 CNS, more than 25 µM. Besides, the TGI in the experiment with NCI-H23 lung, in the experiment with PC-3 prostate, in the experiment with MCF7 breast and with SK-OV-3 ovarian was more than 25 µM throughout.

On to `O=c1ccc(N=Nc2ccc([N+](=O)[O-])cc2)ccc1O`, for which the GI50 was 14.8 µM in the experiment with MALME-3M melanoma; 4.29 µM in the experiment with EKVX NSCLC; 3.15 µM with RPMI-8226 leukemia; 9.64 µM in the experiment with MDA-MB-231 breast; 7.79 µM in the experiment on CAKI-1 renal; 4.57 µM in the experiment with SF-295 CNS. For the same molecule, the GI50 is 6.37 µM in the experiment on NCI-H23 lung, 5.15 µM in the experiment with PC-3 prostate, 4 µM in the experiment with MCF7 breast and 28.4 µM in the experiment with SK-OV-3 ovarian. The concentration for total growth inhibition (TGI) in the experiment with MALME-3M melanoma is more than 100 µM; in the experiment on EKVX NSCLC, more than 100 µM; in the experiment with RPMI-8226 leukemia, more than 100 µM; with MDA-MB-231 breast, 71.2 µM; with CAKI-1 renal, more than 100 µM; with SF-295 CNS it was more than 100 µM. Moreover, the TGI in the experiment on NCI-H23 lung, in the experiment with PC-3 prostate, in the experiment on MCF7 breast and in the experiment on SK-OV-3 ovarian was more than 100 µM in each case.

As to `Cn1ccnc1C(=O)/C=C/c1ccc(C(=O)Nc2ccc(S(F)(F)(F)(F)F)cc2)cc1`, the GI50 is 5.76 µM in the experiment with MALME-3M melanoma; 0.953 µM in the experiment on EKVX NSCLC; 0.38 µM in the experiment on RPMI-8226 leukemia; 2.33 µM in the experiment on MDA-MB-231 breast; 2.1 µM in the experiment with CAKI-1 renal; 1.62 µM in the experiment with SF-295 CNS. Further, the GI50 in the experiment with NCI-H23 lung is 0.853 µM; in the experiment on PC-3 prostate, 1.9 µM; in the experiment with MCF7 breast, 0.481 µM; with SK-OV-3 ovarian, more than 14.3 µM. Moreover, the TGI with MALME-3M melanoma was more than 14.3 µM; in the experiment with EKVX NSCLC it was more than 14.3 µM; in the experiment with RPMI-8226 leukemia, 2.68 µM; with MDA-MB-231 breast, more than 14.3 µM; with CAKI-1 renal it was more than 14.3 µM; with SF-295 CNS, more than 14.3 µM. Moreover, the TGI in the experiment on NCI-H23 lung, in the experiment on PC-3 prostate, with MCF7 breast and in the experiment with SK-OV-3 ovarian was more than 14.3 µM each time.

In the case of `Cc1ccc2c(c1)c1nc3cc(C)c(C)cc3nc1n2CCN(C)C`, the GI50 in the experiment on MALME-3M melanoma is 1.73 µM; in the experiment with EKVX NSCLC, 2.95 µM; in the experiment on RPMI-8226 leukemia, 2.06 µM; in the experiment with MDA-MB-231 breast, 2.11 µM; in the experiment with CAKI-1 renal, 1.33 µM; in the experiment with SF-295 CNS it was 2.37 µM. The GI50 was 2.04 µM in the experiment on NCI-H23 lung, 2.32 µM in the experiment with PC-3 prostate, 2.91 µM with MCF7 breast and 2.61 µM in the experiment on SK-OV-3 ovarian. In addition, the TGI in the experiment with MALME-3M melanoma is 3.76 µM; in the experiment on EKVX NSCLC, 11.4 µM; in the experiment with RPMI-8226 leukemia, 5.2 µM; in the experiment with MDA-MB-231 breast it was 8.5 µM; in the experiment with CAKI-1 renal, 4.46 µM; with SF-295 CNS, 6.62 µM. In addition, the TGI with NCI-H23 lung is 5.9 µM; in the experiment with PC-3 prostate, 6.82 µM; with MCF7 breast it was 9.7 µM; with SK-OV-3 ovarian it was 8.52 µM.

Take `CCCCOc1ccc(NC(=O)n2nc(N)c3ccccc32)cc1`: the GI50 with MALME-3M melanoma was 18.9 µM; in the experiment with EKVX NSCLC, 17.4 µM; with RPMI-8226 leukemia, 2.63 µM; in the experiment with MDA-MB-231 breast, 14 µM; in the experiment on CAKI-1 renal, 29.1 µM; with SF-295 CNS, 23.5 µM. Further, the GI50 was 22.6 µM in the experiment with NCI-H23 lung, 13.9 µM in the experiment on PC-3 prostate, 5.62 µM in the experiment with MCF7 breast and 49.2 µM in the experiment on SK-OV-3 ovarian. For the same molecule, the TGI turned out to be 48.4 µM in the experiment with MALME-3M melanoma; 85.1 µM with EKVX NSCLC; 28.4 µM in the experiment on RPMI-8226 leukemia; 41.5 µM in the experiment with MDA-MB-231 breast; 71.9 µM in the experiment with CAKI-1 renal; 79.3 µM with SF-295 CNS. Moreover, the TGI with NCI-H23 lung was 57.5 µM; in the experiment with PC-3 prostate, 54.1 µM; in the experiment with MCF7 breast, 32.3 µM; with SK-OV-3 ovarian, more than 100 µM.

With `COc1cc2cc(C(=O)CCC(=O)O)sc2cc1OC`, the GI50 in the experiment on MALME-3M melanoma, with EKVX NSCLC, in the experiment with RPMI-8226 leukemia, with MDA-MB-231 breast, with CAKI-1 renal and with SF-295 CNS was more than 100 µM each time. The GI50 in the experiment with NCI-H23 lung was more than 100 µM; with PC-3 prostate, more than 100 µM; in the experiment with MCF7 breast it was more than 100 µM; in the experiment on SK-OV-3 ovarian, 62.4 µM. Further, the total growth inhibition concentration (TGI) with MALME-3M melanoma, in the experiment with EKVX NSCLC, with RPMI-8226 leukemia, in the experiment with MDA-MB-231 breast, with CAKI-1 renal and in the experiment on SF-295 CNS was more than 100 µM each time. Moreover, the TGI with NCI-H23 lung, in the experiment with PC-3 prostate, in the experiment with MCF7 breast and with SK-OV-3 ovarian was more than 100 µM throughout.
